Experiments:
Format in all cases: in vivo
[1] = tested on: Cucurbit leaf beetle (Aulacophora femoralis); assay: Test against cucurbit leaf beetle (Aulacophora femoralis), leaf dip; details: active compound concentration 100 ppm; second instar larvae on dipped cucumber leaves; after 7 days
Procedure: (§1) Unless described otherwise, the test solutions were prepared as follows:
(§2) The active compound, 1 part by weight of the active compound was admixed with the solvent in the above described amount which contains the emulsifying agent in the above described amount. The mixture was then diluted with water to specific concentration.
(§3) In order to prepare the test solution containing the active compound, 1 part by weight of the active compound was admixed with 3 parts by weight of the solvent dimethyl formamide which contains 1 part by weight of the emulsifying agent polyoxyethylene alkylphenyl ether. This mixture is then diluted with water to the specific concentration.
(§4) Solvent: dimethyl formamide, 3 parts by weight; emulsifying agent: polyoxyethylene alkylphenyl ether, 1 part by weight
Leaves of cucumber were immersed in the test solution at the appropriate concentration, and the leaves were dried in air. The leaves were then put in a plastic cup containing sterilized black soil and five Aulacophora femoralis at second instar larvae were released in the cup. The cups were placed in a temperature-controlled chamber at 25° C. After 7 days, the number of dead larvae was counted, and thus the insecticidal activity was calculated. An insecticidal activity of 100% means that all larvae were killed, whereas an insecticidal activity of 0% means that no larva was killed.

[2] = tested on: Ctenocephalides felis; assay: Ctenocephalides felis-test (CTECFE); details: application rate 100 ppm in cattle blood, adult unfed fleas, after 2 days
Procedure: (§5) Solvent: dimethyl sulfoxide
To produce a suitable preparation of active compound, 10 mg of active compound are dissolved in 0.5 ml solvent, and the concentrate is diluted with cattle blood to the desired concentration. Approximately 20 adult unfed (Ctenocephalides felis) are placed in flea chambers. The blood chamber, sealed with parafilm on the bottom, are filled with cattle blood supplied with compound solution and placed on top of the flea chamber, so that the fleas are able to suck the blood. The blood chamber is heated to 37° C. whereas the flea chamber is kept at room temperature. After 2 days mortality in % is determined. 100% means that all the fleas have been killed; 0% means that none of the fleas have been killed.

[3] = tested on: Tobacco cutworm (Spodoptera litura) larvae; assay: Test against tobacco cutworm (Spodoptera litura) larvae, leaf dip; details: active compound concentration 100 ppm; third instar larvae on dipped sweet potato leaves; after 7 days
Procedure: as §1, §2, §3, §4
Leaves of sweet potato were immersed in the test solution at the appropriate concentration, and the leaves were dried in air. The leaves were then placed in a petri dish having a diameter of 9 cm, and ten Spodoptera litura at third instar larvae were released therein. The petri dishes were placed in a temperature-controlled chamber at 25° C. After 2 days and 4 days more sweet potato leaves were added. After 7 days, the number of dead larvae was counted to calculate the insecticidal activity. An insecticidal activity of 100% means that all larvae were killed, whereas an insecticidal activity of 0% means that no larva was killed. In the current test, the results of two petri dishes for each treatment were averaged.

[4] = tested on: Lucilia cuprina 1st instar larvae; assay: Lucilia cuprina-test (LUCICU 48 h); details: application rate 100 ppm, 1st instar larvae on minced horse meat, after 2 days, read-out: activity (percentage of larval mortality)
Procedure: Species: Lucilia cuprina 1st instar larvae (age 24 hrs)
as §5
10 mg active compound are dissolve in 0.5 ml Dimethylsulfoxid. Serial dilutions are made to obtain the desired rates. Approximately 20 Lucilia cuprina 1st instar larvae are transferred into a test tube containing 1 cm^3 of minced horse meat and 0.5 ml aqueous dilution of test compound. After 2 days percentage of larval mortality are recorded. 100% efficacy=all larvae are killed, […].

[5] = tested on: Musca domestica; assay: Musca domestica-test; details: application rate 100 ppm, adults, sugar/compound soaked sponge, after 2 days
Procedure: as §5
To produce a suitable preparation of active compound, 10 mg of active compound are dissolved in 0.5 ml solvent, and the concentrate is diluted with water to the desired concentration. Prior to the assay, a piece of kitchen sponge is soaked with a mixture of sugar and compound solution and placed into a container. 10 adults (Musca domestica) are placed into the container and closed with a perforated lid. After 2 days mortality in % is determined. 100% means that all the flies have been killed; 0% means that none of the flies have been killed.

[6] = tested on: Two-spotted spider mite (Tetranychus urticae); assay: Test against two-spotted spider mite (Tetranychus urticae), spray; details: active compound concentration 100 ppm; adult mites on kidney bean, sprayed; after 7 days
Procedure: as §1, §2, §3, §4
50 to 100 adult mites of Tetranychus urticae were inoculated to leaves of kidney bean at two-leaf stage planted in a pot of 6 cm in diameter. After one day, test solution at the appropriate concentration was sprayed thereon in a sufficient amount using a spray gun. After the spraying, the plant pot was placed inside a greenhouse, and after 7 days, the acaricidal activity was calculated. An acaricidal activity of 100% means that all mites were killed, whereas an acaricidal activity of 0% means that no mite was killed.

[7] = tested on: Boophilus microplus; assay: Boophilus microplus (dip); details: application rate 100 ppm; adult engorged female ticks dipped one minute; after 7 days
Procedure: Solvent: dimethylsulfoxid
To produce a suitable preparation of active compound, 10 mg of active compound are dissolved in 0.5 ml solvent, and the concentrate is diluted with water to the desired concentration. Eight to ten adult engorged female Boophilus microplus ticks are placed in perforated plastic beakers and immersed in aqueous compound solution for one minute. Ticks are transferred to a filter paper in a plastic tray. Egg deposition of fertile eggs is monitored after. After 7 days mortality in % is determined. 100% means that all the ticks have been killed; 0% means that none of the ticks have been killed.

SMILES | insecticidal activity [1] | activity (mortality in %) [2] | insecticidal activity [3] | mortality at 100 ppm ([2]; Ctenocephalides felis, 48 h) | mortality at 100 ppm [4] | mortality at 100 ppm ([5]; Musca domestica, 48 h) | acaricidal activity [6] | activity (mortality in %) [5] | activity (mortality in %) [7]
CCC(=O)NCc1ccc(N2CC(c3cc(Cl)c(Cl)c(Cl)c3)(C(F)(F)F)OC2=O)cc1 (centres unmarked) [Compound 1-59] | 100% | 95% | 100% | – | – | – | – | – | –
CCC(=O)NCc1ccc(N2CC(c3cc(Cl)cc(Cl)c3)(C(F)(F)F)OC2=O)cc1C(F)(F)F (centres unmarked) [Compound 1-3, N-{4-[5-(3,5-dichlorophenyl)-2-oxo-5-(trifluoromethyl)-1,3-oxazolin-3-yl]-2-(trifluoromethyl)benzyl}propane amide] | 100% | – | 100% | 95% | 100% | 100% | 100% | – | –
Cc1cc(N2CC(c3cc(C(F)(F)F)cc(C(F)(F)F)c3)(C(F)(F)F)OC2=O)ccc1CNC(=O)C1CC1 (centres unmarked) [Compound 1-159] | 100% | 95% | 100% | – | – | – | – | 90% | –
Cc1cc(N2CC(c3cc(C(F)(F)F)cc(C(F)(F)F)c3)(C(F)(F)F)OC2=O)ccc1CNC(=O)CC(F)(F)F (centres unmarked) [Compound 1-161] | 100% | 80% | 100% | – | – | – | – | – | –
CCC(=O)NCc1ccc(N2CC(c3cccc(C(F)(F)F)c3)(C(F)(F)F)OC2=O)cc1C(F)(F)F (centres unmarked) [Compound 1-73] | 100% | – | 100% | – | – | – | – | 80% | –
O=C(CC(F)(F)F)NCc1ccc(N2CC(c3cc(C(F)(F)F)cc(C(F)(F)F)c3)(C(F)(F)F)OC2=O)cc1Cl (centres unmarked) [Compound 1-147] | 100% | 95% | 100% | – | – | – | 100% | – | –
CC(=O)NCc1ccc(N2CC(c3cc(Cl)cc(Cl)c3)(C(F)(F)F)OC2=O)cc1C(F)(F)F (centres unmarked) [Compound 1-2] | 100% | 95% | 100% | – | – | – | – | – | 80%
O=C(CC(F)(F)F)NCc1ccc(N2CC(c3cc(Cl)cc(Cl)c3)(C(F)(F)F)OC2=O)cc1C(F)(F)F (centres unmarked) [Compound 1-7] | 100% | 95% | 100% | – | – | – | 100% | – | –
Cc1cc(N2CC(c3cc(C(F)(F)F)cc(C(F)(F)F)c3)(C(F)(F)F)OC2=O)ccc1CNC(=O)C[S+](C)[O-] (centres unmarked) [Compound 1-163] | – | 80% | – | – | – | – | – | – | –
O=C(NCc1ccc(N2CC(c3cc(C(F)(F)F)cc(C(F)(F)F)c3)(C(F)(F)F)OC2=O)cc1Cl)C1CC1 (centres unmarked) [Compound 1-145] | 100% | 95% | 100% | – | – | – | 100% | 80% | –
CC(=O)NCc1ccc(N2CC(c3cc(Cl)c(Cl)c(Cl)c3)(C(F)(F)F)OC2=O)cc1C(F)(F)F (centres unmarked) [Compound 1-16] | 100% | – | 100% | – | – | – | 100% | 90% | 80%
CCC(=O)NCc1ccc(N2CC(c3cc(Cl)c(Cl)c(Cl)c3)(C(F)(F)F)OC2=O)cc1C(F)(F)F (centres unmarked) [Compound 1-17] | 100% | – | 100% | – | – | – | 100% | 90% | 100%
CCC(=O)NCc1ccc(N2CC(c3cc(C(F)(F)F)cc(C(F)(F)F)c3)(C(F)(F)F)OC2=O)cc1C(F)(F)F (centres unmarked) [Compound 1-129] | 100% | – | 100% | – | – | – | 100% | – | –
O=C(CC(F)(F)F)NCc1ccc(N2CC(c3cc(C(F)(F)F)cc(C(F)(F)F)c3)(C(F)(F)F)OC2=O)cc1C(F)(F)F (centres unmarked) [Compound 1-133] | 100% | – | 100% | – | – | – | 100% | – | –
